{"source": "patent US20180078609A1", "about": "“METHODS AND COMPOSITIONS FOR TREATING ALZHEIMER'S DISEASE AND OTHER MEMORY-ASSOCIATED DISORDERS AND CONDITIONS” (Massachusetts Institute of Technology, priority 2016, published 2018)", "key": {"DG": {"system": "DG", "experiment": "Kainic acid seizure-induced ChR2-eYFP labelling", "format": "in vivo, mouse", "settings": "1 day off DOX; 15 mg kg−1 i.p. kainic acid", "method": "For seizure experiments [Liu, X., et al. (2012) Nature 484, 381-385], mice were taken off DOX for 1 day and injected intraperitoneally with 15 mg kg^−1 kainic acid (KA). Mice were returned to DOX food 6 h after KA treatment and perfused the next day for immunohistochemistry procedures.\nTo characterize the expression pattern of ChR2-eYFP, DTR-eYFP, eYFP alone and oChIEF-tdTomato in control and AD mice, the number of eYFP^+/tdTomato^+ neurons were counted from 4-5 coronal slices per mouse (n=3-5 mice per group). Coronal slices centered on coordinates covered by optic fiber implants were taken for DG quantification and sagittal slices centered on injection coordinates were taken for MEC and LEC. Fluorescence images were acquired using a Zeiss Axiolmager.Z1/ApoTome microscope (×20). […] The number of eYFP^+/tdTomato^+ cells per section was calculated by applying a threshold above background fluorescence. Data were analyzed using Microsoft Excel with the Statplus plug-in. A similar approach was applied for quantifying amyloid-3 plaques, c-Fos^+ neurons and adult newborn (DCX^+) neurons. Total engram cell reactivation was calculated as ((c-Fos^+ eYFP^+)/(total DAPI^+))×100. Chance overlap was calculated as ((c-Fos^+/total DAPI^+)×(eYFP^+/total DAPI^+))×100. Percentage of adult newborn neurons expressing neuronal markers was calculated as ((NeuN^+ DCX^+)/(total DCX^+))×100. […]"}, "DG engram cells [1]": {"system": "DG engram cells", "experiment": "Dendritic spine density analysis of DG engram cells after in vivo optical LTP", "parameters": "species or system mouse", "settings": "early AD mice treated with anisomycin after LTP induction", "method": "Engram cells were labelled using c-Fos-tTA-driven synthesis of ChR2-eYFP or eYFP alone. The eYFP signal was amplified using immunohistochemistry procedures, after which fluorescence z-stacks were taken by confocal microscopy (Zeiss LSM700) using a×40 objective. Maximum intensity projections were generated using ZEN Black software (Zeiss). Four mice per experimental group were analyzed for dendritic spines. For each mouse, 30-40 dendritic fragments of 10-μm length were quantified (n=120-160 fragments per group). To measure spine density of DG engram cells with a focus on entorhinal cortical inputs, distal dendritic fragments in the middle-to-outer molecular layer (ML) were selected. For CA3 and CA1 engram cells, apical and basal dendritic fragments were selected. To compute spine density, the number of spines counted on each fragment was normalized by the cylindrical approximation of the surface of the specific fragment. Experiments were conducted blind to experimental group. Researcher 1 imaged dendritic fragments and randomized images, while researcher 2 performed manual spine counting.\n(§1) One day after CFC training and engram labelling (DG plus PP terminals) in control and early AD groups, mice were placed in an open field arena (52×26 cm) after patch cords were fitted to the fiber implants. […]"}, "early AD mice": {"system": "early AD mice", "experiment": "Contextual fear conditioning memory recall (freezing) after in vivo optical LTP", "parameters": "species or system mouse", "text": "Two distinct contexts were employed [Ryan, T. J., et al. (2015) Science 348, 1007-1013]. Context A was 29×25×22 cm chambers with grid floors, opaque triangular ceilings, red lighting, and scented with 1% acetic acid. Four mice were run simultaneously in four identical context A chambers. Context B consisted of four 30×25×33 cm chambers with perspex floors, transparent square ceilings, bright white lighting, and scented with 0.25% benzaldehyde. All mice were conditioned in context A (two 0.60 mA shocks of 2 s duration in 5 min), and tested (3 min) in contexts A and B 1 day later. […] Floors of chambers were cleaned with quatricide before and between runs. Mice were transported to and from the experimental room in their home cages using a wheeled cart. The cart and cages remained in an anteroom to the experimental rooms during all behavioral experiments. For engram labeling, mice were kept on regular food without DOX for 24 h before training. When training was complete, mice were switched back to food containing 40 mg kg^−1 DOX.\nas §1"}, "DG mossy cells": {"system": "DG mossy cells", "experiment": "Calretinin (CR+) staining of mossy cell axons after engram cell ablation", "format": "in vivo, mouse", "settings": "after DT administration", "method": "Mice were dispatched using 750-1,000 mg kg^−1 avertin and perfused transcardially with PBS, followed by 4% paraformaldehyde (PFA). Brains were extracted and incubated in 4% PFA at room temperature overnight. Brains were transferred to PBS and 50 μm coronal slices were prepared using a vibratome. For immunostaining [Ryan, T. J., et al. (2015) Science 348, 1007-1013], each slice was placed in PBS+0.2% Triton X-100 (PBS-T), with 5% normal goat serum for 1 h and then incubated with primary antibody at 4° C. for 24 h. Slices then underwent three wash steps for 10 min each in PBS-T, followed by 1 h incubation with secondary antibody. After three more wash steps of 10 min each in PBS-T, slices were mounted on microscope slides. All analyses were performed blind to the experimental conditions. Antibodies used for staining were as follows: to stain for ChR2-eYFP, DTR-eYFP or eYFP alone, slices were incubated with primary chicken anti-GFP (1:1,000, Life Technologies) and visualized using anti-chicken Alexa-488 (1:200). For plaques, slices were stained using primary mouse anti-β-amyloid (1:1,000; Sigma-Aldrich) and secondary anti-mouse Alexa-488 (1:500). c-Fos was stained with rabbit anti-c-Fos (1:500, Calbiochem) and anti-rabbit Alexa-568 (1:300). Adult newborn neurons were stained with guinea pig anti-DCX (1:1,000; Millipore) and anti-guinea-pig Alexa-555 (1:500). […]"}, "DG engram cells [2]": {"system": "DG engram cells", "experiment": "DTR-mediated ablation of engram cells, DTR-eYFP cell counts", "format": "in vivo, mouse", "settings": "DTR-expressing DG engram cells after DT administration", "method": "Mice were dispatched using 750-1,000 mg kg^−1 avertin and perfused transcardially with PBS, followed by 4% paraformaldehyde (PFA). Brains were extracted and incubated in 4% PFA at room temperature overnight. Brains were transferred to PBS and 50 μm coronal slices were prepared using a vibratome. For immunostaining [Ryan, T. J., et al. (2015) Science 348, 1007-1013], each slice was placed in PBS+0.2% Triton X-100 (PBS-T), with 5% normal goat serum for 1 h and then incubated with primary antibody at 4° C. for 24 h. Slices then underwent three wash steps for 10 min each in PBS-T, followed by 1 h incubation with secondary antibody. […]\nTo characterize the expression pattern of ChR2-eYFP, DTR-eYFP, eYFP alone and oChIEF-tdTomato in control and AD mice, the number of eYFP^+/tdTomato^+ neurons were counted from 4-5 coronal slices per mouse (n=3-5 mice per group). Coronal slices centered on coordinates covered by optic fiber implants were taken for DG quantification and sagittal slices centered on injection coordinates were taken for MEC and LEC. Fluorescence images were acquired using a Zeiss Axiolmager.Z1/ApoTome microscope (×20). […] The number of eYFP^+/tdTomato^+ cells per section was calculated by applying a threshold above background fluorescence. Data were analyzed using Microsoft Excel with the Statplus plug-in. […]"}}}
{"compound": "C=C(C)[C@H]1CN[C@H](C(=O)O)[C@H]1CC(=O)O", "note": "[kainic acid]", "values": [{"measurement": "ChR2-eYFP labelling after seizures", "setting": "DG", "result": "efficient labelling throughout the DG"}]}
{"compound": "COc1ccc(C[C@H]2NC[C@H](O)[C@H]2OC(C)=O)cc1", "note": "[anisomycin]", "values": [{"measurement": "Average dendritic spine density vs saline-treated AD mice", "setting": "DG engram cells [1]", "result": "decreased"}, {"measurement": "Memory recall freezing vs saline-treated AD mice", "setting": "early AD mice; AD+100 Hz+Aniso, 2 days after LTP induction followed by drug administration, 75 mg kg−1 i.p. twice", "result": "less freezing"}]}
{"compound": "diphtheria toxin", "values": [{"measurement": "Memory recall freezing vs saline-treated mice", "setting": "early AD mice; AD rescue+DTR+DT, after optical LTP spine restoration", "result": "less freezing"}, {"measurement": "Effect on nearby DG mossy cells", "setting": "DG mossy cells", "result": "intact"}, {"measurement": "Ablation of DG engram cells", "setting": "DG engram cells [2]", "result": "efficiently ablated DG engram cells"}]}
